{
  "source": "paper PMC6175577",
  "about": "“BRCT domains of the DNA damage checkpoint proteins TOPBP1/Rad4 display distinct specificities for phosphopeptide ligands” (eLife, 2018)",
  "key": {"Rad4-BRCT1,2 K56E": {"molecular_target": "T1, Rad4-BRCT1,2 K56E (Schizosaccharomyces pombe, UniProt P32372, K56E)", "T1 construct": "made in house; host or cells: E. coli BL21(DE3)", "T1 sequence (P32372 1-186 K56E limits assumed)": "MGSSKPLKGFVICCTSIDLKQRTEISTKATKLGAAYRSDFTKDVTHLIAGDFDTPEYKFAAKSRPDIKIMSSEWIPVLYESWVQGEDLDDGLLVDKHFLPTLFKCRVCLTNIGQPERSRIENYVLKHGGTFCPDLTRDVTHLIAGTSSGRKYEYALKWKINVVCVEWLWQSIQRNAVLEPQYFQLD", "experiment": "Fluorescence polarisation titration, Rad4-BRCT1,2 K56E (BRCT1 mutant)", "assay_type": "binding", "details": "FP, fluorescein-peptide 200 nM, HEPES pH 7.5, room temperature, one-site fit, 4 replicates", "description": "(§1) Fluorescein-labelled peptides (Peptide Protein Research Ltd, Fareham, UK) at a concentration of 200 nM, were incubated at room temperature with increasing concentrations of recombinant protein in 25 mM HEPES pH 7.5, 150 mM NaCl, 1 mM EDTA, 0.25 mM TCEP, 0.02% (v/v) Tween-20. Four parallel replicates of each titration were dispensed into a black 96-well polypropylene plate (VWR, Lutterworth, UK) for measurement. Fluorescence polarisation was measured in a CLARIOstar multimode microplate reader (BMG Labtech, Aylesbury, UK). Binding curves represent the mean of 4 independent experiments, with error bars indicating one standard deviation. All data were fitted by non-linear regression, to a one site-specific binding model in Prism seven for Mac OS X (v 7.0d, GraphPad Software) in order to calculate the reported dissociation constants (Kd). Low-affinity non-specific responses for which a binding curve could not be determined are marked as ND."}, "Rad4-BRCT1,2 WT": {"molecular_target": "T2, Rad4-BRCT1,2 WT (Schizosaccharomyces pombe, UniProt P32372)", "T2 construct": "made in house; host or cells: E. coli BL21(DE3)", "T2 sequence (P32372 1-186 limits assumed)": "T1 sequence (P32372 1-186 K56E limits assumed) with E56K", "experiment": "Fluorescence polarisation titration, Rad4-BRCT1,2 wild-type", "details": "FP, fluorescein-peptide 200 nM, HEPES pH 7.5, room temperature, one-site fit, 4 replicates; ND = low-affinity non-specific response, no binding curve", "description": "as §1"}, "Rad4-BRCT1,2 K151E": {"molecular_target": "T3, Rad4-BRCT1,2 K151E (Schizosaccharomyces pombe, UniProt P32372, K151E)", "T3 construct": "made in house; host or cells: E. coli BL21(DE3)", "T3 sequence (P32372 1-186 K151E limits assumed)": "T1 sequence (P32372 1-186 K56E limits assumed) with E56K, K151E", "experiment": "Fluorescence polarisation titration, Rad4-BRCT1,2 K151E (BRCT2 mutant)", "details": "FP, fluorescein-peptide 200 nM, HEPES pH 7.5, room temperature; ND = low-affinity non-specific response, no binding curve", "description": "as §1"}, "Rad4-BRCT3,4": {"molecular_target": "T4, Rad4-BRCT3,4 (Schizosaccharomyces pombe, UniProt P32372)", "T4 construct": "made in house; host or cells: E. coli BL21(DE3)", "T4 sequence (P32372 291-494 limits assumed)": "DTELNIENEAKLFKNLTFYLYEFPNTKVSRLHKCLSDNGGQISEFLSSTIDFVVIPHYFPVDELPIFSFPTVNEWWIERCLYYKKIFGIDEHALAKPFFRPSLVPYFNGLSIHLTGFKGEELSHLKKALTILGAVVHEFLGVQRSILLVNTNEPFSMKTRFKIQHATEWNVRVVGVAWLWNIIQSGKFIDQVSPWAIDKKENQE", "experiment": "Fluorescence polarisation titration, Rad4-BRCT3,4", "details": "FP, fluorescein-peptide 200 nM, HEPES pH 7.5, room temperature; ND = low-affinity non-specific response, no binding curve", "description": "as §1"}, "TOPBP1-BRCT4,5": {"molecular_target": "T5, TOPBP1-BRCT4,5 (Homo sapiens, UniProt Q92547)", "T5 construct": "made in house; host or cells: E. coli BL21(DE3)", "T5 sequence (Q92547 549-746 limits assumed)": "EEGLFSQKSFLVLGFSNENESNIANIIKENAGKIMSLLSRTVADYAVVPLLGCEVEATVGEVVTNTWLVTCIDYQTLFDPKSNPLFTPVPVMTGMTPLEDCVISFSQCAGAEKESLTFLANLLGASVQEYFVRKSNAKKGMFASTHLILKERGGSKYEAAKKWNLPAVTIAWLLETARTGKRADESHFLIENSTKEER", "experiment": "Fluorescence polarisation titration, TOPBP1-BRCT4,5", "assay_type": "binding", "details": "FP, fluorescein-peptide 200 nM, HEPES pH 7.5, room temperature, one-site fit, 4 replicates; ND = low-affinity non-specific response, no binding curve", "description": "as §1"}, "TOPBP1-BRCT0,1,2 K250E": {"molecular_target": "T6, TOPBP1-BRCT0,1,2 K250E (Homo sapiens, UniProt Q92547, K250E)", "T6 construct": "made in house; host or cells: E. coli BL21(DE3)", "T6 sequence (Q92547 1-290 K250E limits assumed)": "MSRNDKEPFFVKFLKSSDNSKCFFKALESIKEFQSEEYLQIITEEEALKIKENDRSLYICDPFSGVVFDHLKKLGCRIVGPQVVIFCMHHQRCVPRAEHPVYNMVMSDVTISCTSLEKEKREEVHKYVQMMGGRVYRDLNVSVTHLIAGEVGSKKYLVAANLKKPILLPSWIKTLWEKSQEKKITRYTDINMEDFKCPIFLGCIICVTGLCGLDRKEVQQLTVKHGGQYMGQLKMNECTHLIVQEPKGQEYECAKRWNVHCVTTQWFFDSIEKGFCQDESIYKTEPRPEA", "experiment": "Fluorescence polarisation titration, TOPBP1-BRCT0,1,2 K250E (BRCT2 mutant)", "assay_type": "binding", "description": "as §1"}, "TOPBP1-BRCT7,8": {"molecular_target": "T7, TOPBP1-BRCT7,8 (Homo sapiens, UniProt Q92547)", "T7 construct": "made in house; host or cells: E. coli BL21(DE3)", "T7 sequence (Q92547 1264-1493 limits assumed)": "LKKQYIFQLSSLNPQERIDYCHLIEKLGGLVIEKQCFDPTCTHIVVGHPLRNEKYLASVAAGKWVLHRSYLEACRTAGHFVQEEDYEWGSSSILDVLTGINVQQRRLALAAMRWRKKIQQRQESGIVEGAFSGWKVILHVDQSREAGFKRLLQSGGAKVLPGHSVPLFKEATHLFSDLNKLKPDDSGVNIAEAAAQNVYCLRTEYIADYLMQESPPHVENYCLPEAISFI", "experiment": "Fluorescence polarisation titration, TOPBP1-BRCT7,8", "assay_type": "binding", "details": "FP, fluorescein-peptide 200 nM, HEPES pH 7.5, room temperature, one-site fit; ND = low-affinity non-specific response, no binding curve", "description": "as §1"}, "TOPBP1-BRCT0,1,2 WT": {"molecular_target": "T8, TOPBP1-BRCT0,1,2 WT (Homo sapiens, UniProt Q92547)", "T8 construct": "made in house; host or cells: E. coli BL21(DE3)", "T8 sequence (Q92547 1-290 limits assumed)": "as the sequence (Q92547 1-290 K250E limits assumed) above, with E250K counted along it", "experiment": "Fluorescence polarisation titration, TOPBP1-BRCT0,1,2 wild-type", "assay_type": "binding", "description": "as §1"}, "TOPBP1-BRCT0,1,2 K155E": {"molecular_target": "T9, TOPBP1-BRCT0,1,2 K155E (Homo sapiens, UniProt Q92547, K155E)", "T9 construct": "made in house; host or cells: E. coli BL21(DE3)", "T9 sequence (Q92547 1-290 K155E limits assumed)": "as the sequence (Q92547 1-290 K250E limits assumed) above, with K155E, E250K counted along it", "experiment": "Fluorescence polarisation titration, TOPBP1-BRCT0,1,2 K155E (BRCT1 mutant)", "assay_type": "binding", "description": "as §1"}, "[1]": {"details": "FP, fluorescein-peptide 200 nM, HEPES pH 7.5, room temperature, one-site fit, 4 replicates"}, "[2]": {"details": "FP, fluorescein-peptide 200 nM, HEPES pH 7.5, room temperature, one-site fit, 4 replicates, read-out: Kd"}},
  "note": "Changes are numbered by the printed parent chain. Like-named read-outs stand apart in the source and are kept apart here. Where a SMILES comes first, the peptide text is derived from it. [ ]: non-standard residue; d: D form. The star is where a group is joined. 5FAM = O=C1OC2(c3ccc(O)cc3Oc3cc(O)ccc32)c2ccc(C(=O)*)cc21; pT = C[C@@H](OP(=O)(O)O)[C@H](N)C(=O)O; pS = N[C@@H](COP(=O)(O)O)C(=O)O",
  "data": [
    {"compound": "CSCC[C@H](NC(=O)[C@@H](NC(=O)CNC(=O)CNC(=O)[C@H](Cc1ccc(O)cc1)NC(=O)CNC(=O)c1ccc2c(c1)C(=O)OC21c2ccc(O)cc2Oc2cc(O)ccc21)C(C)C)C(=O)N[C@H](C(=O)N[C@H](C(=O)N1CCC[C@H]1C(=O)N[C@@H](CC(N)=O)C(=O)N[C@H](C(=O)N1CCC[C@H]1C(=O)N[C@@H](CCC(N)=O)C(=O)N[C@@H](CCCCN)C(=O)N1CCC[C@H]1C(=O)N[C@@H](CC(N)=O)C(=O)N[C@@H](CC(C)C)C(=O)N[C@@H](CCC(N)=O)C(=O)O)[C@@H](C)OP(=O)(O)O)C(C)C)[C@@H](C)O", "note": "[Mdb1 pT113] (5FAM-GYGGVMTVPN[pT]PQKPNLQ-OH)", "values": [
      {"measurement": "Kd", "setting": "Rad4-BRCT1,2 K56E", "result": "largely unaffected"},
      {"measurement": "Kd", "setting": "Rad4-BRCT1,2 WT", "result": "low micromolar affinity"},
      {"measurement": "Kd", "setting": "Rad4-BRCT1,2 K151E", "result": "substantially reduced compared to wild-type"},
      {"measurement": "Kd", "setting": "Rad4-BRCT3,4", "result": "no binding"}
    ]},
    {"compound": "CC[C@H](C)[C@H](NC(=O)CNC(=O)[C@H](Cc1ccc(O)cc1)NC(=O)[C@H](CCCCN)NC(=O)[C@H](CC(=O)O)NC(=O)[C@H](CCC(=O)O)NC(=O)[C@@H]1CCCN1C(=O)[C@@H](NC(=O)[C@H](CC(=O)O)NC(=O)[C@H](CCCCN)NC(=O)[C@@H](NC(=O)[C@H](CC(C)C)NC(=O)[C@@H](NC(=O)[C@@H]1CCCN1C(=O)CNC(=O)CNC(=O)[C@H](Cc1ccc(O)cc1)NC(=O)CN)C(C)C)C(C)C)[C@@H](C)OP(=O)(O)O)C(=O)O", "note": "[RHNO1 pT202] (H-GYGGPVLVKD[pT]PEDKYGI-OH; N-terminus and C-terminus assumed)", "values": [
      {"measurement": "Kd", "setting": "TOPBP1-BRCT4,5", "result": "did not show any measurable binding"},
      {"measurement": "Kd", "setting": "TOPBP1-BRCT0,1,2 K250E; [1]", "result": "comparable affinity to the wild-type"},
      {"measurement": "Kd", "setting": "TOPBP1-BRCT0,1,2 K250E; [2]", "result": "< 200", "unit": "nM"},
      {"measurement": "Kd", "setting": "TOPBP1-BRCT7,8", "result": "did not show any measurable binding"},
      {"measurement": "Kd", "setting": "TOPBP1-BRCT0,1,2 WT; [1]", "result": "sub-micromolar affinity"},
      {"measurement": "Kd", "setting": "TOPBP1-BRCT0,1,2 WT; [2]", "result": "< 200", "unit": "nM"},
      {"measurement": "Fold tighter binding than RAD9-pS387", "setting": "TOPBP1-BRCT0,1,2 WT; RHNO1-pT202 versus RAD9-pS387, binding to TOPBP1 BRCT1", "result": "~ 10 fold"},
      {"measurement": "Kd", "setting": "TOPBP1-BRCT0,1,2 K155E; FP, fluorescein-peptide 200 nM, HEPES pH 7.5, room temperature, one-site fit, 4 replicates, ND = low-affinity non-specific response, no binding curve", "result": "no binding was observed"}
    ]},
    {"compound": "CC[C@H](C)[C@H](NC(=O)[C@H](CCC(N)=O)NC(=O)[C@H](CCCCN)NC(=O)[C@H](Cc1c[nH]cn1)NC(=O)[C@@H](NC(=O)[C@@H]1CCCN1C(=O)[C@@H](NC(=O)[C@H](CCC(=O)O)NC(=O)[C@H](C)NC(=O)[C@@H](NC(=O)[C@H](CO)NC(=O)[C@H](CCCCN)NC(=O)[C@@H](NC(=O)[C@H](CC(C)C)NC(=O)CNC(=O)[C@H](Cc1ccc(O)cc1)NC(=O)CNC(=O)c1ccc2c(c1)C(=O)OC21c2ccc(O)cc2Oc2cc(O)ccc21)[C@@H](C)O)C(C)C)[C@@H](C)OP(=O)(O)O)C(C)C)C(=O)N[C@@H](CO)C(=O)O", "note": "[Treslin pT969] (5FAM-GYGLTKSVAE[pT]PVHKQIS-OH)", "values": [
      {"measurement": "Kd", "setting": "TOPBP1-BRCT0,1,2 WT; read-out: Kd", "result": "940 ± 60", "unit": "nM"},
      {"measurement": "Kd", "setting": "TOPBP1-BRCT0,1,2 K155E; read-out: Kd", "result": "1000 ± 60", "unit": "nM"}
    ]},
    {"compound": "CC[C@H](C)[C@H](NC(=O)[C@H](CCC(=O)O)NC(=O)[C@H](CC(=O)O)NC(=O)CNC(=O)[C@H](CCCCN)NC(=O)[C@H](CCC(=O)O)NC(=O)[C@@H]1CCCN1C(=O)[C@H](COP(=O)(O)O)NC(=O)[C@H](CCC(=O)O)NC(=O)[C@H](CCC(=O)O)NC(=O)[C@@H](NC(=O)[C@@H](NC(=O)CNC(=O)[C@@H](NC(=O)[C@H](CC(=O)O)NC(=O)CNC(=O)[C@H](Cc1ccc(O)cc1)NC(=O)CNC(=O)c1ccc2c(c1)C(=O)OC21c2ccc(O)cc2Oc2cc(O)ccc21)[C@@H](C)CC)C(C)C)C(C)C)C(=O)O", "note": "[Treslin pT1001] (5FAM-GYGDIGVVEE[pS]PEKGDEI-OH)", "values": [
      {"measurement": "Kd", "setting": "TOPBP1-BRCT0,1,2 K250E; read-out: Kd", "result": "350 ± 130", "unit": "nM"},
      {"measurement": "Kd", "setting": "TOPBP1-BRCT0,1,2 WT; read-out: Kd", "result": "600 ± 30", "unit": "nM"},
      {"measurement": "Kd", "setting": "TOPBP1-BRCT0,1,2 K155E; read-out: Kd", "result": "730 ± 40", "unit": "nM"}
    ]}
  ]
}
